Test results as given in US8796217B2, “Use of transesterified olive oil in the cosmetic field” (Hallstar Italia S.R.L., priority 2008, dated 2014).

What was measured:
[1] = system: Reconstructed Human Epidermis (RHE) keratinocytes; assay: MTT assay of keratinocyte vitality on the RHE; format: cell-based; settings: MTT assay on RHE at 24 hour instant
Description: Keratinocyte vitality was ascertained using the MTT assay: MTT salt (3-(4,5-dimetil-tiaol-2-il)-2,5 diphenyltetrazolium bromide) may be reduced through the mitochondrial enzyme succinate-dehydrogenase found in living cells. The reduction product, formazan crystals, may be quantified by optic density at […] and is proportional to the number of living cells. The MTT assay was performed on the RHE at the 24 hour instant.

[2] = Transepidermal water loss (TEWL) after topical application in volunteers; format: in vivo, human; settings: 5% ingredient applied topically, ten volunteers
Text: The clinical efficiency of bio-compatible liquid crystals generated by cetearyl-olivate, sorbitan-olivate was clinically verified. Firstly, its skin biocompatibility was verified in a study on its effect on transepidermal water loss (TEWL) with respect to other lipidic compositions. TEWL is a convalidated method for assessing the skin permeability barrier function (Fluhr, 2006). Ten volunteers have applied topically identical concentrations (5%) of the following ingredients: cetearyl-olivate, sorbitan-olivate; cetearyl alcohol, cetearyl-glucoside and poliglyceril-3 methylglucose distearate. The results—see FIG. 4—have shown that the application of cetearyl-olivate, sorbitan-olivate reduced the increase of TEWL by 29% over control formulae (FIG. 2).

| Compound | Cell vitality (%) [1] [%] | induced TEWL / water loss following application [2] |
| --- | --- | --- |
| Cn1c(=O)c2c(ncn2C)n(C)c1=O [Control (pure caffeine), caffeine] | 100 |  |
| poliglyceril-3 methylglucose distearate |  | activate excessive water loss following application |
